Columns and labels:
[1] = target: T1, Avi-KRAS G12D (1-169) GppNHp/RAF1 RBD-3xFLAG (52-151) (Homo sapiens, UniProt P01116, G12D); test: Raf1-KRAS G12D-GppNHP disruption HTRF assay (Biological Example 1); assay type: binding
T1 construct: Avi-KRAS G12D (1-169)
Procedure, shortened: (§1)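 HTRF PPI disruption; buffer 50 mM Tris pH 7.5, 100 mM NaCl, 5 mM MgCl2, 0.1% BSA, 0.01% Tween, 10% DMSO. Protein mix 1 h RT shaking, reagent mix 1 h RT shaking. Data as % activity vs DMSO (100%).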

[2] = target: T2, Avi-KRAS G12V (1-169) GppNHp/RAF1 RBD-3xFLAG (52-151) (Homo sapiens, UniProt P01116, G12V); test: Raf1-KRAS G12V-GppNHP disruption HTRF assay (Biological Example 1); assay type: binding
T2 construct: Avi-KRAS G12V (1-169)
Procedure, shortened: as §1

[3] = target: T3, Avi-KRAS WT (2-169) GTP/RAF1 RBD-3xFLAG (51-131) (Homo sapiens, UniProt P01116); test: Raf1-KRAS WT-GTP disruption HTRF assay (Biological Example 3); assay type: binding; details: KRAS WT, GTP-loaded
T3 construct: Avi-KRAS WT (2-169)
Procedure, shortened: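 HTRF PPI read-out (ex 320 nm, em 615 nm) after 1 h RT incubation with shaking; data as % activity vs DMSO (100%), IC50 from curve fit. Complex 50 nM, RBD reagent 75 nM; compound 30-0.005 μM, 3-fold.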

GP2d cells (KRAS G12D) = test: Cell-based pERK HTRF assay in GP2d cell (Biological Example 2); details: GP2d (KRAS G12D) cells
Procedure, shortened: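 HTRF read-out of pERK (excitation 320 nm, emission 615 nm) after lysates sat 4–24 h at room temperature with Eu cryptate and d2 antibodies.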

[4] = KRAS G12D, GppNHp-loaded, class symbols
[5] = KRAS G12V, GppNHp-loaded, class symbols
[6] = KRAS G12D, GppNHp-loaded, Table 11
[7] = KRAS G12V, GppNHp-loaded, Table 11

T3 sequence (P01116 2-169 isoform P01116-2): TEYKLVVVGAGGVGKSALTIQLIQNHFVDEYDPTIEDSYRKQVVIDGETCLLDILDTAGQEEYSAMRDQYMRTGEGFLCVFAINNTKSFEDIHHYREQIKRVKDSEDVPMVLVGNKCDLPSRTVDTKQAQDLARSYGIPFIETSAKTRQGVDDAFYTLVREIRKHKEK
T1 sequence (P01116 1-169 isoform P01116-2 G12D): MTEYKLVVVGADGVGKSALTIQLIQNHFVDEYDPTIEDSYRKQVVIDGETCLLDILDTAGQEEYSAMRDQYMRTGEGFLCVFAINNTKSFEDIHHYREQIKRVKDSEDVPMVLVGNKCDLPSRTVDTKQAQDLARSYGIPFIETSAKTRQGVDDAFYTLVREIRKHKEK
T2 sequence (P01116 1-169 isoform P01116-2 G12V): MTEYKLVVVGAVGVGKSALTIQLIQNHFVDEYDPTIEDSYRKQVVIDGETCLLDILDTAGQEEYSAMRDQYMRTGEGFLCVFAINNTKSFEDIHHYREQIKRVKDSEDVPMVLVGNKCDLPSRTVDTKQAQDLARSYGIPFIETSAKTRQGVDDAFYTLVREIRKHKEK

Row | SMILES | IC50 [1, 4] [nM] | IC50 [2, 5] [nM] | IC50 [3] [nM] | IC50 (GP2d cells (KRAS G12D); GP2d) [nM] | IC50 (GP2d cells (KRAS G12D); GP2d, pERK HTRF, class symbols) [nM] | IC50 [1, 6] [nM] | IC50 [2, 7] [nM] | IC50 (GP2d cells (KRAS G12D); GP2d, pERK HTRF) [nM] | IC50 ([1]; KRAS G12D-GppNHp/RAF1 RBD HTRF) [nM] | IC50 ([2]; KRAS G12V-GppNHp/RAF1 RBD HTRF) [nM] | IC50 (GP2d cells (KRAS G12D); pERK HTRF) [nM]
1 | Cc1c(C(=O)N2CCCC2)nn2c1CN(c1nc(OCC34CCCN3CC(F)C4)nc3c(F)c(-c4ccc(F)c5sc(N)c(C#N)c45)c(C(F)(F)F)cc13)CC2 (stereo not drawn) [Compound 744] | 100 to 1000 | 100 to 1000 | 100 to 1000 | < 100 | < 100 |  |  |  |  |  | 
2 | N#Cc1c(N)sc2c(F)ccc(-c3c(C(F)(F)F)cc4c(N5CCCOCC5)nc(OC[C@@]56CCCN5C[C@H](F)C6)nc4c3F)c12 [Compound 232] |  |  | 100 to 1000 | < 100 |  | < 100 | 100 to 1000 | < 100 |  |  | 
3 | CCN(c1nc(OC[C@@]23CCCN2C[C@H](F)C3)nc2c(F)c(-c3ccc(F)c4sc(N)c(C#N)c34)c(C(F)(F)F)cc12)[C@H]1C[C@@H]2CN(C)C(=O)N2C1 (atropisomer, axis not shown) [Compound 605] | < 100 | 100 to 1000 | 100 to 1000 | < 100 | < 100 |  |  |  |  |  | 
4 | CN(C)C(=O)c1cc2n(n1)CCN(c1nc(OC[C@@]34CCCN3C[C@H](F)C4)nc3c(F)c(-c4ccc(F)c5sc(N)c(C#N)c45)c(C(F)(F)F)cc13)C2 [Compound 355] |  |  | 1000 to 10000 | < 100 |  |  |  | < 100 | 100 to 1000 | 100 to 1000 | 
5 | CCN(c1nc(OC[C@@]23CCCN2C[C@H](F)C3)nc2c(F)c(-c3ccc(F)c4sc(N)c(C#N)c34)c(C(F)(F)F)cc12)[C@H]1CCN(C(=O)C2CN(C(C)=O)C2)C1 (atropisomer, axis not shown) [Compound 638] | < 100 | < 100 | 100 to 1000 | < 100 | < 100 |  |  |  |  |  | 
6 | N#Cc1c(N)sc2c(F)ccc(-c3c(C(F)(F)F)cc4c(N5CC6CC(C5)O6)nc(OC[C@@]56CCCN5C[C@H](F)C6)nc4c3F)c12 [Compound 145] |  |  | 1000 to 10000 | < 100 |  | 100 to 1000 | 100 to 1000 | < 100 |  |  | 
7 | N#Cc1c(N)sc2c(F)ccc(-c3c(C(F)(F)F)cc4c(N5CC6CC5CO6)nc(OC[C@@]56CCCN5C[C@H](F)C6)nc4c3F)c12 (stereo partly drawn) [Compound 147] |  |  |  |  |  | 100 to 1000 | 100 to 1000 | < 100 |  |  | 
8 | N#Cc1c(N)sc2c(F)ccc(-c3c(C(F)(F)F)cc4c(N5CCC[C@@H](O)C5)nc(OC[C@@]56CCCN5C[C@H](F)C6)nc4c3F)c12 [Compound 234] |  |  |  |  |  | 100 to 1000 | 100 to 1000 | < 100 |  |  | 

Second part, the compound after the results:

Row | IC50 [1, 4] [nM] | IC50 [2, 5] [nM] | IC50 [3] [nM] | IC50 (GP2d cells (KRAS G12D); GP2d) [nM] | IC50 (GP2d cells (KRAS G12D); GP2d, pERK HTRF, class symbols) [nM] | IC50 [1, 6] [nM] | IC50 [2, 7] [nM] | IC50 (GP2d cells (KRAS G12D); GP2d, pERK HTRF) [nM] | IC50 ([1]; KRAS G12D-GppNHp/RAF1 RBD HTRF) [nM] | IC50 ([2]; KRAS G12V-GppNHp/RAF1 RBD HTRF) [nM] | IC50 (GP2d cells (KRAS G12D); pERK HTRF) [nM] | SMILES
9 | < 100 | < 100 | 100 to 1000 | < 100 | < 100 |  |  |  |  |  |  | CCN(c1nc(OC[C@@]23CCCN2C[C@H](F)C3)nc2c(F)c(-c3ccc(F)c4sc(N)c(C#N)c34)c(C(F)(F)F)cc12)[C@H]1CCN(C(=O)CC(F)F)C1 (atropisomer, axis not shown) [Compound 611]
10 |  |  |  |  |  | < 100 | 100 to 1000 | < 100 |  |  |  | C[C@@H]1[C@H](N(C)c2nc(OC[C@@]34CCCN3C[C@H](F)C4)nc3c(F)c(-c4ccc(F)c5sc(N)c(C#N)c45)c(C(F)(F)F)cc23)CCN1C(=O)C1CC1 [Compound 258]
11 |  |  |  |  |  | < 100 | 100 to 1000 |  |  |  | < 100 | CCC(=O)N1CC[C@@H](N(C)c2nc(OC[C@@]34CCCN3C[C@H](F)C4)nc3c(F)c(-c4ccc(F)c5sc(N)c(C#N)c45)c(C(F)(F)F)cc23)[C@H]1C [Compound 260]
12 |  |  |  |  |  |  |  | < 100 | 100 to 1000 | 100 to 1000 |  | CCN(c1nc(OC[C@@]23CCCN2C[C@H](F)C3)nc2c(F)c(-c3ccc(F)c4sc(N)c(C#N)c34)c(Cl)cc12)[C@@H]1CCN(C(C)=O)[C@@H]1C [Compound 323]
13 |  |  | 100 to 1000 | < 100 |  |  |  | < 100 | 100 to 1000 | 100 to 1000 |  | CCN(c1nc(OC[C@@]23CCCN2C[C@H](F)C3)nc2c(F)c(-c3ccc(F)c4sc(N)c(C#N)c34)c(C(F)(F)F)cc12)[C@@H]1CCN(C(=O)C(C)C)C1 [Compound 328]
14 | < 100 | < 100 | 100 to 1000 | < 100 | < 100 |  |  |  |  |  |  | CCN(c1nc(OC[C@@]23CCCN2C[C@H](F)C3)nc2c(F)c(-c3ccc(F)c4sc(N)c(C#N)c34)c(C(F)(F)F)cc12)[C@H]1CC(=O)N(C2CC2)C1 (atropisomer, axis not shown) [Compound 615]
